Assay results published in PubChem BioAssay (NCI).
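96-well plates; 48 h exposure; 5 concentrations. Endpoints by linear interpolation between flanking doses. Not reached: highest tested concentration assigned. Here, GI50 denotes the concentration required for 50% inhibition of growth. Definition used: TGI = concentration required for complete inhibition of growth.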

Legend:
Assay in all cases: NCI-60 cell line screen, 48 h
OVCAR-5 ovarian = system: OVCAR-5 ovarian
U251 CNS = system: U251 CNS
NCI/ADR-RES ovarian = system: NCI/ADR-RES ovarian
786-0 renal = system: 786-0 renal
RXF 393 renal = system: RXF 393 renal
OVCAR-4 ovarian = system: OVCAR-4 ovarian
HS 578T breast = system: HS 578T breast
HL-60(TB) leukemia = system: HL-60(TB) leukemia
NCI-H226 lung = system: NCI-H226 lung
DU-145 prostate = system: DU-145 prostate
BT-549 breast = system: BT-549 breast
SK-OV-3 ovarian = system: SK-OV-3 ovarian
SW-620 colon = system: SW-620 colon
KM12 colon = system: KM12 colon
HT29 colon = system: HT29 colon
SK-MEL-2 melanoma = system: SK-MEL-2 melanoma
UO-31 renal = system: UO-31 renal
SK-MEL-5 melanoma = system: SK-MEL-5 melanoma
SF-268 CNS = system: SF-268 CNS
SF-539 CNS = system: SF-539 CNS
PC-3 prostate = system: PC-3 prostate
OVCAR-3 ovarian = system: OVCAR-3 ovarian
HCC-2998 colon = system: HCC-2998 colon
MCF7 breast = system: MCF7 breast
HOP-62 NSCLC = system: HOP-62 NSCLC
SK-MEL-28 melanoma = system: SK-MEL-28 melanoma
IGROV1 ovarian = system: IGROV1 ovarian
HCT-116 colon = system: HCT-116 colon
UACC-257 melanoma = system: UACC-257 melanoma
ACHN renal = system: ACHN renal
HCT-15 colon = system: HCT-15 colon
M14 melanoma = system: M14 melanoma
EKVX NSCLC = system: EKVX NSCLC
TK-10 renal = system: TK-10 renal
SF-295 CNS = system: SF-295 CNS
CCRF-CEM leukemia = system: CCRF-CEM leukemia
CAKI-1 renal = system: CAKI-1 renal
MOLT-4 leukemia = system: MOLT-4 leukemia
OVCAR-8 ovarian = system: OVCAR-8 ovarian
SN12C renal = system: SN12C renal
K-562 leukemia = system: K-562 leukemia
NCI-H522 lung = system: NCI-H522 lung
LOX IMVI melanoma = system: LOX IMVI melanoma
COLO 205 colon = system: COLO 205 colon
SNB-75 CNS = system: SNB-75 CNS
MDA-MB-435 = system: MDA-MB-435
A549 NSCLC = system: A549 NSCLC
A498 renal = system: A498 renal
RPMI-8226 leukemia = system: RPMI-8226 leukemia
UACC-62 melanoma = system: UACC-62 melanoma
MDA-MB-231 breast = system: MDA-MB-231 breast
MALME-3M melanoma = system: MALME-3M melanoma
T-47D breast = system: T-47D breast
NCI-H23 lung = system: NCI-H23 lung
NCI-H460 lung = system: NCI-H460 lung
SR leukemia = system: SR leukemia

O=C1C(=O)c2ccccc2C(O)=C1CCCc1ccc(C2CCCC2)cc1
GI50 (OVCAR-5 ovarian): 11 µM
TGI (OVCAR-5 ovarian): 23.6 µM
GI50 (U251 CNS): 5.3 µM
TGI (U251 CNS): 33.6 µM
GI50 (NCI/ADR-RES ovarian): 5.89 µM
TGI (NCI/ADR-RES ovarian): 30.2 µM
GI50 (786-0 renal): 4.02 µM
TGI (786-0 renal): 21.4 µM
GI50 (RXF 393 renal): 1.41 µM
TGI (RXF 393 renal): 11.6 µM
GI50 (OVCAR-4 ovarian): 5.92 µM
TGI (OVCAR-4 ovarian): 39.7 µM
GI50 (HS 578T breast): 20.6 µM
TGI (HS 578T breast): 85.1 µM
GI50 (HL-60(TB) leukemia): 2.9 µM
TGI (HL-60(TB) leukemia): 6.92 µM
GI50 (NCI-H226 lung): 3.77 µM
TGI (NCI-H226 lung): 20.5 µM
GI50 (DU-145 prostate): 6.9 µM
TGI (DU-145 prostate): 54.9 µM
GI50 (BT-549 breast): 10.5 µM
TGI (BT-549 breast): 48.6 µM
GI50 (SK-OV-3 ovarian): 12.5 µM
TGI (SK-OV-3 ovarian): 56.9 µM
GI50 (SW-620 colon): 4.87 µM
TGI (SW-620 colon): 17.1 µM
GI50 (KM12 colon): 5.1 µM
TGI (KM12 colon): 25.1 µM
GI50 (HT29 colon): 5.43 µM
TGI (HT29 colon): 19.5 µM
GI50 (SK-MEL-2 melanoma): 7.2 µM
TGI (SK-MEL-2 melanoma): 32.7 µM
GI50 (UO-31 renal): 3.85 µM
TGI (UO-31 renal): 15.5 µM
GI50 (SK-MEL-5 melanoma): 3.79 µM
TGI (SK-MEL-5 melanoma): 14.5 µM
GI50 (SF-268 CNS): 5.1 µM
TGI (SF-268 CNS): 51.5 µM
GI50 (SF-539 CNS): 5.57 µM
TGI (SF-539 CNS): 25.9 µM
GI50 (PC-3 prostate): 3.3 µM
TGI (PC-3 prostate): 19.7 µM
GI50 (OVCAR-3 ovarian): 4.91 µM
TGI (OVCAR-3 ovarian): 20.1 µM
GI50 (HCC-2998 colon): 2.99 µM
TGI (HCC-2998 colon): 8.34 µM
GI50 (MCF7 breast): 4.21 µM
TGI (MCF7 breast): 21.1 µM
GI50 (HOP-62 NSCLC): 8.04 µM
TGI (HOP-62 NSCLC): 23.6 µM
GI50 (SK-MEL-28 melanoma): 7.69 µM
TGI (SK-MEL-28 melanoma): 40.1 µM
GI50 (IGROV1 ovarian): 3.72 µM
TGI (IGROV1 ovarian): 18.4 µM
GI50 (HCT-116 colon): 3.55 µM
TGI (HCT-116 colon): 13.2 µM
GI50 (UACC-257 melanoma): 3.91 µM
TGI (UACC-257 melanoma): 28.2 µM
GI50 (ACHN renal): 6.08 µM
TGI (ACHN renal): 39.6 µM
GI50 (HCT-15 colon): 4.25 µM
TGI (HCT-15 colon): 16.9 µM
GI50 (M14 melanoma): 8.86 µM
TGI (M14 melanoma): 23.7 µM
GI50 (EKVX NSCLC): 11.7 µM
TGI (EKVX NSCLC): 64.7 µM
GI50 (TK-10 renal): 6.99 µM
TGI (TK-10 renal): 34.1 µM
GI50 (SF-295 CNS): 3.4 µM
TGI (SF-295 CNS): 11 µM
GI50 (CCRF-CEM leukemia): 4.62 µM
TGI (CCRF-CEM leukemia): 30.3 µM
GI50 (CAKI-1 renal): 3.15 µM
TGI (CAKI-1 renal): 11.8 µM
GI50 (MOLT-4 leukemia): 3.72 µM
TGI (MOLT-4 leukemia): 12.3 µM
GI50 (OVCAR-8 ovarian): 5.8 µM
TGI (OVCAR-8 ovarian): 60 µM
GI50 (SN12C renal): 6.78 µM
TGI (SN12C renal): 95 µM
GI50 (K-562 leukemia): 3.31 µM
TGI (K-562 leukemia): 10.4 µM
GI50 (NCI-H522 lung): 5.01 µM
TGI (NCI-H522 lung): 25.9 µM
GI50 (LOX IMVI melanoma): 3.16 µM
TGI (LOX IMVI melanoma): 9.22 µM
GI50 (COLO 205 colon): 6.82 µM
TGI (COLO 205 colon): 54.3 µM
GI50 (SNB-75 CNS): 6.55 µM
TGI (SNB-75 CNS): 38.7 µM
GI50 (MDA-MB-435): 5.1 µM
TGI (MDA-MB-435): 38.8 µM
GI50 (A549 NSCLC): 3.36 µM
TGI (A549 NSCLC): 32.9 µM
GI50 (A498 renal): 7.24 µM
TGI (A498 renal): 23 µM
GI50 (RPMI-8226 leukemia): 2.66 µM
TGI (RPMI-8226 leukemia): 6.94 µM
GI50 (UACC-62 melanoma): 3.73 µM
TGI (UACC-62 melanoma): 18.5 µM
GI50 (MDA-MB-231 breast): 11.1 µM
TGI (MDA-MB-231 breast): 43.9 µM
GI50 (MALME-3M melanoma): 6.55 µM
TGI (MALME-3M melanoma): 38 µM
GI50 (T-47D breast): 7.21 µM
TGI (T-47D breast): 98 µM
GI50 (NCI-H23 lung): 5.19 µM
TGI (NCI-H23 lung): 22.6 µM
GI50 (NCI-H460 lung): 3.11 µM
TGI (NCI-H460 lung): 11.8 µM
GI50 (SR leukemia): 3.39 µM
TGI (SR leukemia): 12.9 µM
